Results: US20160199439A1, “Application of recombinant immunoregulatory protein of ganoderma lucidum in preparation of drug for treating focal cerebral ischemia” (priority 2013, published 2016)

What was measured:
[1] = test system: rat focal cerebral ischemia models; experiment: NSS grading (modified neurological severity scores, 16-point system) in rat focal cerebral ischemia models; assay type: in vivo; conditions: GM-1 positive drug control group
Description: Preparing rat focal cerebral ischemia models through a modified Zea Longa method; grading the rats which were fully conscious after operation according to a modified NSS grading standard (16-point system); arranging a sham operation group, a model group, a positive drug control group, a rLZ-8 high-dosage group (70 μg·kg^−1), a rLZ-8 middle-dosage group (35 μg·kg^−1) and a rLZ-8 low-dosage group (17.5 μg·kg^−1); and injecting intraperitoneally, twice a day, wherein the same volume of physiological saline was injected into the sham operation group and the model group, for consecutive 7 days. A positive drug in the positive drug control group was the GM-1.

[2] = Weights of rats with focal cerebral ischemia; assay type: in vivo, rat; conditions: GM-1 group, in g (unit assumed)
Text: Weighing rats before modeling; preparing rat focal cerebral ischemia models through a modified Zea Longa method; weighing the rats on the first postoperative day; and weighing the rats after consecutively administrating a drug for 7 days.

ED-1 positive cells = experiment: ED-1 positive cell expression in brain tissue (immunohistochemistry); assay type: in vivo, rat; conditions: GM-1 group; after modeling for 8 days
Description: The rLZ-8 high-dosage group, the rLZ-8 middle-dosage group and the rLZ-8 low-dosage group were provided and prepared by physiological saline to respectively have a concentration of 70 μg·ml^−1, 35 μg·ml^−1 and 17.5 μg·ml^−1. ED-1 antibody was provided by Wuhan Boster Biological Technology Co., Ltd., and PV-6000 two-step method immunohistochemical detection reagent was provided by Beijing Zhongshan Golden Bridge Biotechnology Co., Ltd.
The sham operation group, the model group, the positive drug control group, the rLZ-8 high-dosage group (70 μg·kg^−1), the rLZ-8 middle-dosage group (35 μg·kg^−1) and the rLZ-8 low-dosage group (17.5 μg·kg^−1) were provided.
After being embedded by conventional paraffin and sectioned, a brain tissue paraffin section was tested through an immunologic tissue chemical staining method to test an ED-1 positive cell expression thereof. […]

apoptotic cells = experiment: Test of apoptosis in brain tissue by TUNEL kit; assay type: in vivo, rat; conditions: GM-1 group; after modeling for 8 days
Description: The rLZ-8 high-dosage group, the rLZ-8 middle-dosage group and the rLZ-8 low-dosage group were provided and prepared by physiological saline to respectively have a concentration of 70 μg·ml^−1, 35 μg·ml^−1 and 17.5 μg·ml^−1. TUNEL kit.
The sham operation group, the model group, the positive drug control group, the rLZ-8 high-dosage group (70 μg·ml^−1), the rLZ-8 middle-dosage group (35 μg·ml^−1) and the rLZ-8 low-dosage group (17.5 μg·ml^−1) were provided.
After being embedded by conventional paraffin and sectioned, a brain tissue paraffin section was processed according to instructions of the TUNEL kit. […]

Substance: monosialotetrahexosyl ganglioside sodium injection [GM-1]
- NSS grading ([1]; 1st day): 4.33 ± 1.30
- NSS grading ([1]; 2nd day): 3.92 ± 1.38
- NSS grading ([1]; 3rd day): 3.58 ± 1.24
- NSS grading ([1]; 4th day): 2.75 ± 1.09
- NSS grading ([1]; 5th day): 2.50 ± 1.00
- NSS grading ([1]; 6th day): 2.58 ± 1.08
- NSS grading ([1]; 7th day): 2.41 ± 1.00
- NSS grading ([1]; i.p. twice a day, 0th day, n=12): 4.75 ± 1.30
- Weights of rats ([2]; 0th day after modeling (before modeling)): 266.17 ± 21.21
- Weights of rats ([2]; 1st day after modeling): 246.17 ± 21.99
- Weights of rats ([2]; 8th day after modeling, drug for 7 days): 251.17 ± 40.31
- ED-1 positive cell number (ED-1 positive cells): 13.87 ± 2.39
- Apoptotic cell number (TUNEL) (apoptotic cells): 23.10 ± 2.47
